Source: patent US12286402B2, “Compounds and their use for the treatment of alpha1-antitrypsin deficiency” (CENTESSA PHARMACEUTICALS (UK) LIMITED, priority 2019, dated 2025)

Target: T1, human Z A1AT (Homo sapiens, UniProt P01009, E366K)
T1 construct: expressed in transfected cells; host or cells: HEK-Z cells (human embryonic kidney cell line stably transfected with the human Z A1AT gene)
Assay: A1AT cell secretion assay using HEK-Z cells (A1AT ELISA of supernatants)
Type: cell-based
Conditions: 48 h, supernatant A1AT by ELISA
Method: HEK-Z cells, a human embryonic kidney cell line stably transfected with the human Z A1AT gene, were plated into 96 well plates (3.0×10^5 cells/ml with 200 μl of media/well) overnight at 37° C. in a humidified atmosphere containing 5% CO2. Following incubation cells were washed with 200 μl serum-free media three times and media was replaced with treatments in quadruplicate using serum free media containing either vehicle, 10 μM suberanilohydroxamic acid (SAHA) or a compound of the invention (at concentrations of 10, 33, 100 and 333 nM) for 48 h in a 37° C. incubator in a final volume of 200 μl. At the end of the incubation step the supernatants were removed from the wells, centrifuged at 1000×g at 4° C. for 10 min and were assayed for human A1AT levels by ELISA (Human Serpin A1/α1-antitrypsin duo set ELISA, R& D Systems, DY1268) per manufacturer's instructions.
Briefly, a 96 well plate was coated with human A1AT capture antibody overnight at room temperature (1:180 dilution from stock, 100 μl final volume/well). The capture antibody was then removed and wells washed three times with 300 μl wash buffer (0.05% Tween 20 in PBS) and then 200 μl reagent diluent ([…]) was incubated in each well for 1 h at room temperature. Diluted samples, standards (125, 250, 500, 1000, 2000, 4000 and 8000 pg/ml A1AT) or blanks were then added to each well in duplicate and the plates were covered with a plate sealer and left at room temperature for 2 h. At the end of the sample incubation step, samples were removed and all wells washed as previously and 100 μl detection antibody (1:180 dilution from stock) was added to each well and incubated for a further 2 h at room temperature. Following incubation with detection antibody, supernatant was removed and wells were washed as previously and 100 μl streptavidin-HRP solution (1:200 dilution from stock) was added to each well for 20 min in the dark. After which, 50 μl stop solution (2M H2SO4) was added and optical density (OD) of each well was read at 450 nm with 570 nm blank subtracted from each well using a microplate reader. A 4 parameter logistic curve was constructed using GraphPad Prism 7 and A1AT concentrations were determined in each sample by interpolation from a standard curve and multiplying by the appropriate dilution factor.

T1 sequence (P01009 25-418 E366K): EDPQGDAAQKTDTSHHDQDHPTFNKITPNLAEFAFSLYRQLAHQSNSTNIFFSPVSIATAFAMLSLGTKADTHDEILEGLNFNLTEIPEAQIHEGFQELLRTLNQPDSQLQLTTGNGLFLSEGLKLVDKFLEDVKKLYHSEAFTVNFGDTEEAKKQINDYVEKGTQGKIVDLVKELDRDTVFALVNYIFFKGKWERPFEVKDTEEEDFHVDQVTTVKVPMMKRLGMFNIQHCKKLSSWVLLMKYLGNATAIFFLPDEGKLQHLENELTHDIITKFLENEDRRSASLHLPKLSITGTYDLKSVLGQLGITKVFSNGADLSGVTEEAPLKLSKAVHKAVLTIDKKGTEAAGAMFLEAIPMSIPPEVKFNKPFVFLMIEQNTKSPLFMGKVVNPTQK

Median A1AT % increase over vehicle at 300 nM | SMILES
125% | CN(C)C(=O)c1ccc(Cn2ccccc2=O)cc1 [Example 1, N,N-dimethyl-4-((2-oxopyridin-1(2H)-yl)methyl)benzamide]
147% | CCN(C)C(=O)c1ccc(Cn2ccccc2=O)cc1 [Example 2, N-ethyl-N-methyl-4-((2-oxopyridin-1(2H)-yl)methyl)benzamide]
134% | CC(C)N(C)C(=O)c1ccc(Cn2ccccc2=O)cc1 [Example 3, N-isopropyl-N-methyl-4-((2-oxopyridin-1(2H)-yl)methyl)benzamide]
142% | CN(Cc1ccccc1)C(=O)c1ccc(Cn2ccccc2=O)cc1 [Example 4, N-benzyl-N-methyl-4-((2-oxopyridin-1(2H)-yl)methyl)benzamide]
129% | CN(CC(F)(F)F)C(=O)c1ccc(Cn2ccccc2=O)cc1 [Example 5, N-methyl-4-((2-oxopyridin-1(2H)-yl)methyl)-N-(2,2,2-trifluoroethyl)benzamide]
